Experiments:
[1] = Observation of side-effects after administration in pharmacokinetic experiments; format: in vivo; settings: rats, within 180 min after administration (1 mg/kg i.v. or 5 mg/kg intracolonic)
Method: To evaluate the pharmacokinetic properties of UAMC-00050, it was administered in male Sprague–Dawley rats (200–225 g) either colonically (5 mg/kg, in a volume of 200 µL 5% DMSO solution) or intravenously (1 mg/kg in a volume of 200 µL 5% DMSO solution). Plasma samples were collected after 5, 15, 30, 45, 60, 90, 120, and 180 min via the tail vein and stored at −80 °C until analysis.

neutrophil elastase = system: neutrophil elastase; set-up: method as in PMID 29911328; settings: in vitro; cited from earlier work
[2] = system: chymotrypsin-like activity in colonic tissue; assay: Chymotrypsin-like activity in colonic tissue after intracolonic administration (Suc-Ala-Ala-Pro-Phe-AMC); format: in vivo, Sprague–Dawley rats; settings: post-colitis rats, 5 mg/kg intracolonic, colon harvested 90 min after administration, median (IQR), n = 12; vehicle 1.54 (1.06), p < 0.05
Method: The serine protease inhibitor UAMC-00050 (0.1–1.0–2.5–5.0 mg/kg, dissolved in a volume of 200 µL) or its vehicle (5% DMSO in H2O) was delivered colonically using a flexible catheter (18 G, length 4.5 cm) under short-lasting isoflurane anesthesia (5.0% induction, 1.5% maintenance). To prevent expulsion of the enema, animals were held in a Trendelenburg position for 90 s. Doses for intracolonic administration were based on the doses known to be effective via an i.p. administration and adapted afterwards based on preliminary results.
Trypsin-like, chymotrypsin-like, cathepsin G, elastase-like, and kallikrein activities were determined in colon tissue and fecal samples to profile serine protease activity. […]
Boc-Gln-Ala-Arg-AMC (75 µM) and n-Tosyl-Gly-Pro-Arg-AMC (100 µM) in 50 mM Tris-HCl pH 8.0 containing 120 mM NaCl were used to measure the trypsin-like activity. […] The fluorescence was measured during 20 min at 37 °C on a Tecan Infinite F200 Pro microtiter plate reader. The other activities were assessed in a similar assay, using the substrates mentioned below. Chymotrypsin-like and kallikrein activity were measured with Suc-Ala-Ala-Pro-Phe-AMC (0.45 mM) and H-Pro-Phe-Arg-AMC (0.45 mM), respectively. Elastase-like activity was measured using two assays, one using Suc-Ala-Ala-Pro-Val-AMC as a substrate and the other using Suc-Ala-Ala-Ala-AMC (both 0.45 mM). […]

kallikrein 2 = system: kallikrein 2; set-up: method as in PMID 29911328; settings: in vitro; cited from earlier work
kallikrein 4 = system: kallikrein 4; set-up: method as in PMID 29911328; settings: in vitro; cited from earlier work

In the case of CC(=O)Nc1ccc(OP(=O)(Oc2ccc(NC(C)=O)cc2)C(Cc2ccc(N=C(N)N)cc2)NC(=O)OCc2ccccc2)cc1.Cl (centres unmarked) [UAMC-00050], the Side-effects [1] is given as “No side-effects”, the “inhibition of neutrophil elastase” value (neutrophil elastase) is given as “did not efficiently inhibit” and the “Chymotrypsin-like activity in colonic tissue” value [2] is given as 0.84 (0.57) U/g. For the same compound, the “inhibition of kallikrein 2” value (kallikrein 2) was “efficiently inhibits” and the “inhibition of kallikrein 4” value (kallikrein 4) was “efficiently inhibits”.
